Assay results: article PMC3229523, “Identification of Lactoferricin B Intracellular Targets Using an Escherichia coli Proteome Chip” (PLoS ONE, 2011)
Entries after “also recorded” stand apart in the source; their conditions may differ. Ends that are not written are not given here. * marks the point of attachment. Biotin = O=C1N[C@H]2[C@H](CS[C@H]2CCCCC(=O)*)N1

Assays:
[1] = test system: Bovine Serum Albumin, BSA; test: Fluorescence polarization assay, BSA negative control; format: binding; details: BSA 0.4, 0.2, 0.1, 0.05 µM (negative control); 100 nM labeled LfcinB
Excerpt: (§1) FP assays, investigations of the binding between two molecules in a homogeneous aqueous environment, were used to validate the identified 153 proteins. […] If a fluorophore only binds to a small molecule, such as peptide, the rotation of the complex is fast and the light emits in a different plane of polarization. Therefore, the degree of polarization is low. However, once a fluorophore binds to a large molecule, the bound complex is stimulated with polarized light. The light emits in the same polarized plane, and the complex is maintained in the same plane of polarization, causing an increase in the degree of polarization [22]–[24]. The amount of molecules binding to a fluorophore influences the degree of polarization. In this study, LfcinB was labeled with DyLight™ 549 as a reference value. Once the protein bound to LfcinB, like a fluorophore binds to a large molecule, a high degree of polarization is expected.
(§2) Before the assays, LfcinB was labeled with DyLight™ 549 and tested proteins were quantified with a Pierce® bicinchoninic acid (BCA™) protein assay (Thermo). To label the LfcinB, DyLight™ 549-NHS ester and LfcinB (68∶1, mole/mole) were mixed in PBS at room temperature for 1 h, a D-Salt™ polyacrylamide desalting column (Thermo) was used to remove excess dye and the labeling efficiency of the eluted solution was calculated. […]

GldA = test: Fluorescence polarization assay, GldA; format: binding, E. coli; details: 100 nM DyLight 549-labeled LfcinB; protein 0.025-0.4 µM; data not shown
Excerpt: as §1, §2

HyaF = test: Fluorescence polarization assay, HyaF; format: binding, E. coli
Excerpt: as §1, §2

pyruvate in E. coli = test: Pyruvate assay: pyruvate level in E. coli (OD570); format: cell-based, E. coli MG1655; details: 32 µM LfcinB
Excerpt: (§3) To confirm one of the mechanisms of LfcinB action in pyruvate metabolism, a minimal medium was chosen; because general LB medium contains many carbon sources, including sugars, alcohols and organic acids, this minimal medium allowed glucose to be the sole carbon source in the pyruvate assays. Minimal medium consisted of 6 g/l NaH2PO4, 3 g/l K2HPO4, 0.5 g/l NaCl, 0.12 g/l MgSO4, 1 g/l NH4Cl, 0.01 g/l CaCl2 and 5 g/l glucose. A 0.22 µm filter (Millex®GS, Millipore) was used to filter the minimal medium. E. coli MG1655 was first inoculated into the minimal medium and incubated at 37°C for 16 h with shaking as a preculture. The preculture was diluted 100-fold with the minimal medium in 96-well plate, and 32 µM of LfcinB were added. The mixture was incubated with shaking in a microplate reader at 37°C, and the absorbance was measured after 9 h. Finally, the mixture was harvested by centrifugation at 3452 g for 5 min at 4°C, and each supernatant was removed. The pellets were then stored at −80°C.
To extract the pyruvate in E. coli, hot water extraction was used, a procedure adapted from Canelas et al.. Boiling water was poured into the pellet and it was immediately vortexed. The mixture was then placed in a water bath at 95–100°C for 15 min and cooled on ice. […] Finally, the OD570 of the mixtures was measured by a microplate reader to detect the color intensity.

E. coli MG1655 = test: Pyruvate assay: E. coli growth (OD595); format: cell-based; details: 32 µM LfcinB
Excerpt: as §3

Lactoferricin B (Biotin-FKCRRWQWRMKKLGAPSITCVRRAF; ends and bridges not checked) [LfcinB]
concentration dependence of polarization [1]: remained constant with increasing concentrations of BSA
binding to GldA (GldA): confirmed to bind to LfcinB
degree of polarization vs BSA (HyaF; 100 nM DyLight 549-labeled LfcinB, protein 0.025-0.4 µM, PBS, 0.005% BSA, 0.01% Triton X-100, room temperature, 1 h, ex 540 nm, em 590 nm, Figure 5A): higher polarization than the negative control
concentration dependence of polarization (HyaF; HyaF, two-fold dilution 0.4 µM to 0.025 µM, 100 nM labeled LfcinB): increased with increasing concentrations of these 4 proteins
pyruvate (OD570) level after 9 h with vs without LfcinB (pyruvate in E. coli; minimal medium): accumulation of pyruvate; also recorded: higher than the level in E. coli without LfcinB
Value of pyruvate (OD570) after 9 h incubation (pyruvate in E. coli; minimal medium with glucose, 37°C, hot water extraction, pyruvate assay kit, E. coli without LfcinB 1.976±0.084): 2.526±0.338
Value of OD595 after 9 h incubation (E. coli MG1655; minimal medium with glucose, 37°C, 9 h, E. coli without LfcinB 0.325±0.011): 0.267±0.011
Initial value of OD595 (E. coli MG1655; minimal medium with glucose, 37°C, E. coli without LfcinB 0.057±0.002): 0.058±0.001
amount (OD595) of E. coli after 9 h with vs without LfcinB (E. coli MG1655; minimal medium, 9 h): lower than the level of E. coli without LfcinB
